Experiments:
[1] = test system: HCV genotype 1a (HCV-1a) replicon cells; experiment: HCV genotype 1a replicon luciferase assay (EC50); assay type: cell-based, hepatitis C virus genotype 1a (H77 clone); conditions: 3 days, luciferase (Bright-Glo)
Method: (§1) The EC50 and CC50 values of anti-HCV compounds were determined by HCV genotype 1a (HCV-1a) and 1B (HCV-1b) stable transfer replication (replicon) cells. The source of genotype 1a replicon is H77 clones containing K1691R, K2040R and S2204I adaptive mutations. The source of genotype 1b replicon is Con1 clones containing E1202G, T1280I and K1846T adaptive mutations.
(§2) HCV 1a (HCV-1a) and 1b (HCV-1b) gene subtype replicon system contains the related HCV gene subtype non structural protein gene, G418 resistance gene NEO and luciferase gene, which results in that HCV related protein and luciferase can be stably expressed in cells. By detecting the level of expression of luciferase gene, the level of HCV replication can be determined. Therefore, the system is used as a model for screening the activity of anti-HCV compound in vitro.
(§3) HCV Replicon Cell Lines: HCV-1a and HCV-1b Cells
(§4) The compound powder was dissolved in 100% DMSO. Then the compound was diluted 5 times with 6 points, and added into the cell plate with Echo liquid handler. Ensure the final concentration of DMSO was 0.5%. Each compound was tested in double holes. Maximum initial concentration was 100, 10 or 1 nM, 5 times dilution, 6 points.
(§5) b) Cell Culture (HCV-1a or HCV-1b Replicon Cell):
(§6) 1) absorbing the culture supernatant of the cell culture and washing the cells with 10 mL PBS.
(§7) 2) adding preheated pancreatin to the washed cell culture flasks, rotating culture bottle to make the bottom of the culture bottle uniformly covered by pancreatin, then placed into 37° C., 5% CO2 incubator to digest.
(§8) 3) suspending cells in each T150 culture flask with 10-15 mL culture medium, absorbing 0.1 mL liquid and diluting 2 times by trypan blue solution as counted.
(§9) 4) diluting cells to 8×10^4/mL with the culture medium, adding the diluted cells into the compound-containing 96-well plate (Greiner, Cat.#655090) (100 μL/well, 8000 cells/well) with automatic liquid separator (Thermo Scientific). Then place into a 37° C., 5% CO2 incubator for 3 days. Cell control well: no compound, only containing 0.5% DMSO.
(§10) 6) then adding luciferase luminescence substrate Bright-Glo, after incubation for 5 minutes, detecting the luciferase activity by chemical luminescence detection system Envison (wavelength>700 nm); analyzing the anti-HCV inhibitory activity of the compounds according to luciferase data, which was used to calculate EC50 values.
(§11) The EC50 or CC50 values were obtained by nonlinear fitting analysis on inhibition percentage (inh %) data with GraphPad Prism software.

[2] = test system: HCV genotype 1b (HCV-1b) replicon cells; experiment: HCV genotype 1b replicon luciferase assay (EC50); assay type: cell-based, hepatitis C virus genotype 1b (Con1 clone); conditions: 3 days, luciferase (Bright-Glo)
Method: as §1, §2, §3, §4, §5, §6, §7, §8, §9, §10, §11

SMILES	EC50 ([2]; Hepatitis C virus, 72 h)	also measured
COC(=O)N[C@H](C(=O)N1CCC[C@H]1c1ncc(-c2ccc(-c3ccc(-c4cnc([C@@H]5C6CCC(C6)[C@H]5C(=O)NC5(C(=O)NCC(F)F)CCCCC5)[nH]4)cc3)cc2)[nH]1)C(C)C (stereo partly drawn) [AA_275]	0.001 to 0.1 nM	EC50 ([1]; Hepatitis C virus, 72 h): 10 to 100 nM
COC(=O)NC(C(=O)C1CCCCC1c1ncc(-c2ccc(-c3ccc(-c4cnc(C5CCCC[C@H]5C(=O)N(NC(=O)OC)C(C)C)[nH]4)cc3)cc2)[nH]1)C(C)C (stereo partly drawn) [AA_029]	10 to 100 nM	
COC(=O)N[C@H](C(=O)N1CCC[C@H]1c1ncc(-c2ccc(-c3ccc(-c4[nH]c([C@@H]5CCCN5C(=O)[C@@H](NC(=O)OC)C(C)C)c5c4OCC5)cc3)cc2)[nH]1)C(C)C [AG_114_A]		EC50 [1]: 10 to 100 nM; EC50 [2]: 0.101 to 1 nM
COC(=O)NC(C(=O)N1CCC[C@H]1c1ncc(-c2ccc(-c3ccc4cc(-c5cnc(C6CCCC[C@H]6C(=O)N(NC(=O)OC)C(C)C)[nH]5)ccc4c3)cc2)[nH]1)C1CCOC1 (stereo partly drawn) [AA_076]	1 to 10 nM	
COC(=O)N[C@H](C(=O)N1CCC[C@H]1c1ncc(-c2ccc(-c3ccc(-c4cnc([C@@H]5[C@H]6CC[C@H](C6)[C@H]5C(=O)NNC(C)=O)[nH]4)cc3)cc2)[nH]1)C(C)C [AA_289_ENDOA2]	0.101 to 1 nM	EC50 ([1]; Hepatitis C virus, 72 h): 10 to 100 nM
COC(=O)N[C@H](C(=O)N1CCC[C@H]1c1ncc(-c2ccc(-c3ccc(-c4cnc([C@@H]5[C@H]6CC[C@H](C6)[C@H]5C(=O)N[C@H](C)c5nccs5)[nH]4)cc3)cc2)[nH]1)C(C)C [AA_279_ENDOA2_B]	0.001 to 0.1 nM	EC50 ([1]; Hepatitis C virus, 72 h): 1 to 10 nM
COCCNC(=O)[C@@H]1CCCCC1c1ncc(-c2ccc(-c3ccc(-c4cnc([C@@H]5CCCN5C(=O)[C@@H](NC(=O)OC)C(C)C)[nH]4)cc3)cc2)[nH]1 (stereo partly drawn) [AA_114]	1 to 10 nM	
COC(=O)N[C@@H](COC(C)(C)C)C(=O)N1CCC[C@H]1c1ncc(-c2ccc(-c3ccc(-c4ccc([C@@H]5CCCN5C(=O)[C@@H](NC(=O)OC)C(C)C)[nH]4)cc3)cc2)[nH]1 [AG_098]	0.001 to 0.1 nM	EC50 ([1]; Hepatitis C virus, 72 h): 1 to 10 nM
COC(=O)N[C@H](C(=O)N1CCC[C@H]1c1ncc(-c2ccc(-c3ccc(-c4cnc(C5=C(C(=O)N(CC(=O)O)C(C)C)CCC5)[nH]4)cc3)cc2)[nH]1)C(C)C [AA_047]	10 to 100 nM	
COC(=O)N[C@H](C(=O)N1CCC[C@H]1c1ncc(-c2ccc(-c3ccc(-c4cnc([C@@H]5[C@H]6CC[C@H](C6)[C@H]5C(=O)NC(C)c5cncnc5)[nH]4)cc3)cc2)[nH]1)C(C)C (stereo partly drawn) [AA_292_ENDOA2_M]	0.101 to 1 nM	EC50 ([1]; Hepatitis C virus, 72 h): 1 to 10 nM
COC(=O)N[C@H](C(=O)N1CCC[C@H]1c1ncc(-c2ccc(-c3ccc(-c4cnc(C5C6CCC(C6)[C@H]5C(=O)N(NC(=O)OC)C(C)C)[nH]4)cc3)cc2)[nH]1)C(C)C (stereo partly drawn) [AA_016]		EC50 [2]: 0.101 to 1 nM
COC(=O)N[C@H](C(=O)N1CCC[C@H]1c1ncc(-c2ccc(-c3ccc(-c4cnc([C@@H]5[C@H]6CC[C@H](C6)[C@H]5C(=O)N[C@H](C(=O)OC)C(C)C)[nH]4)cc3)cc2)[nH]1)C(C)C [AA_282_ENDOA2]	0.001 to 0.1 nM	EC50 ([1]; Hepatitis C virus, 72 h): 1 to 10 nM
COC(=O)NN(C(=O)[C@@H]1C2C=CC(C2)C1c1ncc(-c2ccc(-c3ccc(-c4cnc(C5C6C=CC(C6)[C@@H]5C(=O)N(NC(=O)OC)C(C)C)[nH]4)cc3)cc2)[nH]1)C(C)C (stereo partly drawn) [AA_034]	10 to 100 nM	EC50 ([1]; Hepatitis C virus, 72 h): 10 to 100 nM
COC(=O)CN(C(=O)[C@@H]1CCCCC1c1ncc(-c2ccc(-c3ccc(-c4cnc([C@@H]5CCCN5C(=O)[C@@H](NC(=O)OC)C(C)C)[nH]4)cc3)cc2)[nH]1)C(C)C (stereo partly drawn) [AA_063]	1 to 10 nM	
COC(=O)N[C@H](C(=O)N1CCC[C@H]1c1ncc(-c2ccc(-c3ccc(-c4cnc(C5C6C=CC(C6)[C@H]5C(=O)N(NC(=O)OC)C(C)C)[nH]4)cc3)cc2)[nH]1)C(C)C (stereo partly drawn) [AA_032]	0.101 to 1 nM	
COC(=O)NC(C(=O)[C@@H]1CCCCC1c1ncc(-c2ccc(-c3ccc4c(c3)cc3n4C(c4ccc(F)cc4)Oc4cc(-c5cnc([C@@H]6CCCN6C(=O)[C@@H](NC(=O)OC)C(C)C)[nH]5)ccc4-3)cc2)[nH]1)C(C)C (stereo partly drawn) [AA_089]	1 to 10 nM	
COC(=O)N[C@H](C(=O)N1CCC[C@H]1c1ncc(-c2ccc3cc(-c4ccc(-c5cnc([C@H]6C7CCC(O7)[C@H]6C(=O)N(NC(=O)OC)C(C)C)[nH]5)cc4)ccc3c2)[nH]1)C(C)C (stereo partly drawn) [AA_106]	10 to 100 nM	

SMILES	EC50 ([2]; Hepatitis C virus, 72 h)	also measured
COC(=O)N[C@H](C(=O)N1CCC[C@H]1c1ncc(-c2ccc(-c3ccc(-c4cnc(C5=C(C(=O)N(CC(=O)NC6CC6)C(C)C)CCC5)[nH]4)cc3)cc2)[nH]1)C(C)C [AA_064]	1 to 10 nM	
COC(=O)N[C@H](C(=O)N1CCC[C@H]1c1ncc(-c2ccc(-c3ccc(-c4cnc(C5C6CCC(O6)[C@H]5C(=O)N(NC(=O)OC)C(C)C)[nH]4)cc3)cc2)[nH]1)C(C)C (stereo partly drawn) [AA_095]	1 to 10 nM	
COC(=O)N[C@H](C(=O)N1CCC[C@H]1c1ncc(-c2ccc(-c3ccc(-c4cnc(C5CCCC[C@H]5C(=O)NCC5CC5)[nH]4)cc3)cc2)[nH]1)C(C)C (stereo partly drawn) [AA_115]	1 to 10 nM	
COC(=O)N[C@H](C(=O)N1CCC[C@H]1c1ncc(-c2ccc(-c3ccc([C@@H](C)NC(=O)[C@H]4CCCC[C@H]4C(=O)N(NC(=O)OC)C(C)C)cc3)cc2)[nH]1)C(C)C [AA_096]	10 to 100 nM	
COC(=O)NN(C(=O)C1C2CCC(O2)[C@H]1c1ncc(-c2ccc(-c3ccc4cc(-c5cnc(C6CCCC[C@H]6C(=O)N(NC(=O)OC)C(C)C)[nH]5)ccc4c3)cc2)[nH]1)C(C)C (stereo partly drawn) [AA_092]	10 to 100 nM	
COC(=O)N[C@H](C(=O)N1CCC[C@H]1c1ncc(-c2ccc3cc(-c4ccc(-c5cnc([C@H]6CCCC[C@H]6C(=O)N(NC(=O)OC)C(C)C)[nH]5)cc4)ccc3c2)[nH]1)C(C)C [AA_090_B]	1 to 10 nM	
COCCCNC(=O)[C@@H]1CCCCC1c1ncc(-c2ccc(-c3ccc(-c4cnc([C@@H]5CCCN5C(=O)[C@@H](NC(=O)OC)C(C)C)[nH]4)cc3)cc2)[nH]1 (stereo partly drawn) [AA_116]	1 to 10 nM	
COC(=O)N[C@H](C(=O)N1CCC[C@H]1c1ncc(-c2ccc3cc(-c4cnc(C5CCCC[C@H]5C(=O)N(NC(=O)OC)C(C)C)[nH]4)ccc3c2)[nH]1)C(C)C (stereo partly drawn) [AA_079]	10 to 100 nM	
COC(=O)N[C@H](C(=O)N1CCC[C@H]1c1ncc(-c2ccc(-c3ccc(-c4cnc(C5CCCC[C@H]5C(=O)N5CCCCC5)[nH]4)cc3)cc2)[nH]1)C(C)C (stereo partly drawn) [AA_057]	10 to 100 nM	
CNC(=O)CN(C(=O)C1=C(c2ncc(-c3ccc(-c4ccc(-c5cnc([C@@H]6CCCN6C(=O)[C@@H](NC(=O)OC)C(C)C)[nH]5)cc4)cc3)[nH]2)CCC1)C(C)C [AA_065]	1 to 10 nM	
COC(=O)N[C@H](C(=O)N1CCC[C@H]1c1ncc(-c2ccc3cc(-c4ccc(-c5cnc([C@@H]6CCCC[C@@H]6C(=O)N(NC(=O)OC)C(C)C)[nH]5)cc4)ccc3c2)[nH]1)C(C)C [AA_090_A]	1 to 10 nM	
COC(=O)N[C@H](C(=O)N1CCC[C@H]1c1ncc(-c2ccc(-c3ccc(-c4cnc(C5CCCC[C@H]5C(=O)N5CCOCC5)[nH]4)cc3)cc2)[nH]1)C(C)C (stereo partly drawn) [AA_056]	1 to 10 nM	
COC(=O)N[C@H](C(=O)N1CCC[C@H]1c1ncc(-c2ccc(-c3ccc(-c4cnc(C5=C(C(=O)NC(C)C)CCC5)[nH]4)cc3)cc2)[nH]1)C(C)C [AA_027]	10 to 100 nM	
COC(=O)N[C@H](C(=O)N1CCC[C@H]1c1ncc(-c2ccc3cc(-c4ccc(-c5cnc([C@@H]6C7CCC(O7)[C@@H]6C(=O)N(NC(=O)OC)C(C)C)[nH]5)cc4)ccc3c2)[nH]1)C(C)C (stereo partly drawn) [AA_107]	10 to 100 nM	
COC(=O)N[C@H](C(=O)N1CCC[C@H]1c1ncc(-c2ccc(-c3ccc(-c4cnc(C5CCCC[C@H]5C(=O)N5CCNC(=O)C5)[nH]4)cc3)cc2)[nH]1)C(C)C (stereo partly drawn) [AA_054]	0.101 to 1 nM	
COC(=O)N[C@H](C(=O)N1CCC[C@H]1c1ncc(-c2ccc(-c3ccc([C@H](C)NC(=O)[C@H]4CCCC[C@H]4C(=O)N(NC(=O)OC)C(C)C)cc3)cc2)[nH]1)C(C)C [AA_097]	10 to 100 nM	
COC(=O)N[C@H](C(=O)N1CCC[C@H]1c1ncc(-c2ccc(-c3ccc(-c4cnc(C5CCCC[C@H]5C(=O)N5CCCC5)[nH]4)cc3)cc2)[nH]1)C(C)C (stereo partly drawn) [AA_055]	1 to 10 nM	

Reference: US10160771B2, “Hepatitis C virus inhibitors and uses thereof in preparation of drugs” (priority 2014, dated 2018)
